Several values for one entry are separate records, joined by “and”; a condition that tells them apart may be missing. Equal values may be shown once.
Tests used:
[1] = biological target: T1, unphosphorylated VEGF-R2Δ50 (FLVK) (Homo sapiens, UniProt P35968, DEL940-989/E990V); test: VEGF-R2 coupled spectrophotometric assay, unphosphorylated construct (FLVK); assay type: biochemical; details: for inhibition at 0.05 µM: percent inhibition at 50 nM
T1 construct: VEGF-R2Δ50 contains residues 806-939 and 990-1171; made in house; host or cells: baculovirus/insect cell system
Excerpt: This construct determines the ability of a test compound to inhibit tyrosine kinase activity. A construct (VEGF-R2Δ50) of the cytosolic domain of human vascular endothelial growth factor receptor 2 (VEGF-R2) lacking the 50 central residues of the 68 residues of the kinase insert domain was expressed in a baculovirus/insect cell system. Of the 1356 residues of full-length VEGF-R2, VEGF-R2Δ50 contains residues 806-939 and 990-1171, and also one point mutation (E990V) within the kinase insert domain relative to wild-type VEGF-R2. Autophosphorylation of the purified construct was performed by incubation of the enzyme at a concentration of 4 μM in the presence of 3 mM ATP and 40 mM MgCl2 in 100 mM HEPES, pH 7.5, containing 5% glycerol and 5 mM DTT, at 4° C. for 2 h. […] See Parast et al., Biochemistry, 37, 16788-16801 (1998).
The production of ADP from ATP that accompanies phosphoryl transfer was coupled to oxidation of NADH using phosphoenolpyruvate (PEP) and a system having pyruvate kinase (PK) and lactic dehydrogenase (LDH). The oxidation of NADH was monitored by following the decrease of absorbance at 340 nm ([…]=6.22 cm^−1 mM^−1) using a Beckman DU 650 spectrophotometer. Assay conditions for phosphorylated VEGF-R2Δ50 (indicated as FLVK-P in the tables below) were the following: 1 mM PEP; 250 μM NADH; 50 units of LDH/mL; 20 units of PK/mL; 5 mM DTT; […]; 1 mM ATP; and 25 mM MgCl2 in 200 mM HEPES, pH 7.5. Assay conditions for unphosphorylated VEGF-R2Δ50 (indicated as FLVK in the tables) were the following: 1 mM PEP; 250 μM NADH; 50 units of LDH/mL; 20 units of PK/mL; 5 mM DTT; […]; 3 mM ATP; and 60 mM MgCl2 and 2 mM MnCl2 in 200 mM HEPES, pH 7.5. Assays were initiated with 5 to 40 nM of enzyme. Ki values were determined by measuring enzyme activity in the presence of varying concentrations of test compounds. The percent inhibition at 50 nm (% inhibition@ 50 nm) was determined by linear least-squares regression analysis of absorbance as a function of time. The binding inhibitions were fitted to equation as described by Morrison. The data were analyzed using Enzyme Kinetic and Kaleidagraph software.

[2] = system: human umbilical vein endothelial cells (HUVEC); test: HUVEC+VEGF proliferation assay; assay type: cell-based; details: Homo sapiens, HUVEC, 72 h, VEGF 6 ng/mL, MTT
Description: This assay determines the ability of a test compound to inhibit the growth factor-stimulated proliferation of human umbilical vein endothelial cells (“HUVEC”). HUVEC cells (passage 3-4, Clonetics, Corp.) were thawed into EGM2 culture medium (Clonetics Corp) in T75 flasks. Fresh EGM2 medium was added to the flasks 24 hours later. Four or five days later, cells were exposed to another culture medium (F12K medium supplemented with 10% fetal bovine serum (FBS), 60 μg/mL endothelial cell growth supplement (ECGS), and 0.1 mg/mL heparin). Exponentially-growing HUVEC cells were used in experiments thereafter. Ten to twelve thousand HUVEC cells were plated in 96-well dishes in 100 μl of rich, culture medium (described above). The cells were allowed to attach for 24 hours in this medium. The medium was then removed by aspiration and 105 μl of starvation media (F12K+1% FBS) was added to each well. After 24 hours, 15 μl of test agent dissolved in 1% DMSO in starvation medium or this vehicle alone was added into each treatment well; the final DMSO concentration was 0.1%. One hour later, 30 μl of VEGF (30 ng/mL) in starvation media was added to all wells except those containing untreated controls; the final VEGF concentration was 6 ng/mL. Cellular proliferation was quantified 72 hours later by MTT dye reduction, at which time cells were exposed for 4 hours MTT (Promega Corp.). Dye reduction was stopped by addition of a stop solution (Promega Corp.) and absorbance at 595 nm was determined on a 96-well spectrophotometer plate reader.

[3] = biological target: T2, PDGFRβ (Homo sapiens, UniProt P09619); test: PAE-PDGFRβ phosphorylation in PAE-PDGFRB cells assay; assay type: cell-based; details: PAE cells overexpressing human PDGFRβ, PDGF-BB stimulated; read-out: PAE PDGFR autophos IC50
T2 construct: expressed in transfected cells; host or cells: porcine aorta endothelial (PAE) cells
Description: This assay determines the ability of a test compound to inhibit the autophosphorylation of PDGFRβ in porcine aorta endothelial (PAE)-PDGFRβ cells. PAE cells that overexpress human PDGFRβ were used in this assay. The cells were cultured in Ham's F12 media supplemented with 10% fetal bovine serum (FBS) and 400 ug/ml G418. Twenty thousands cells were seeded in each well of a 96-well plate in 50 μL of growth media and allowed to attach for 6 hours at 37° C. Cells were then exposed to the starvation media (Ham's F12 media supplemented with 0.1% FBS) for 16 hours. After the starvation period was over, 10 μL of test agent in 5% DMSO in starvation media were added to the test wells and 10 μL of the vehicle (5% DMSO in starvation media) were added into the control wells. The final DMSO concentration in each well was 0.5%. Plates were incubated at 37° C. for 1 hour and the cells were then stimulated with 1 μg/mL PDGF-BB (R & D System) in the presence of 2 mM Na3VO4 for 8 minutes. The cells were washed once with 1 mm Na3VO4 in HBSS and lysed by adding 50 μL per well of lysis buffer. One hundred μL of dilution buffer were then added to each well and the diluted cell lysate was transferred to a 96-well goat ant-rabbit coated plate (Pierce), which was pre-coated with Rabbit anti Human PDGFRβ antibody (Santa Cruz). The plates were incubated at room temperature for 2 hours and washed seven times with 1% Tween 20 in PBS. HRP-PY20 (Santa Cruz) was diluted and added to the plate for a 30-minute incubation. Plates were then washed again and TMB peroxidase substrate (Kirkegaard & Perry) was added for a 10-minute incubation. One hundred μL of 0.09 N H2SO4 was added into each well of the 96-well plate to stop the reaction. Phosphorylation status was assessed by spectrophotometer reading at 450 nm. IC50 values were calculated by curve fitting using a four-parameter analysis.

T2 sequence (P09619 33-1106): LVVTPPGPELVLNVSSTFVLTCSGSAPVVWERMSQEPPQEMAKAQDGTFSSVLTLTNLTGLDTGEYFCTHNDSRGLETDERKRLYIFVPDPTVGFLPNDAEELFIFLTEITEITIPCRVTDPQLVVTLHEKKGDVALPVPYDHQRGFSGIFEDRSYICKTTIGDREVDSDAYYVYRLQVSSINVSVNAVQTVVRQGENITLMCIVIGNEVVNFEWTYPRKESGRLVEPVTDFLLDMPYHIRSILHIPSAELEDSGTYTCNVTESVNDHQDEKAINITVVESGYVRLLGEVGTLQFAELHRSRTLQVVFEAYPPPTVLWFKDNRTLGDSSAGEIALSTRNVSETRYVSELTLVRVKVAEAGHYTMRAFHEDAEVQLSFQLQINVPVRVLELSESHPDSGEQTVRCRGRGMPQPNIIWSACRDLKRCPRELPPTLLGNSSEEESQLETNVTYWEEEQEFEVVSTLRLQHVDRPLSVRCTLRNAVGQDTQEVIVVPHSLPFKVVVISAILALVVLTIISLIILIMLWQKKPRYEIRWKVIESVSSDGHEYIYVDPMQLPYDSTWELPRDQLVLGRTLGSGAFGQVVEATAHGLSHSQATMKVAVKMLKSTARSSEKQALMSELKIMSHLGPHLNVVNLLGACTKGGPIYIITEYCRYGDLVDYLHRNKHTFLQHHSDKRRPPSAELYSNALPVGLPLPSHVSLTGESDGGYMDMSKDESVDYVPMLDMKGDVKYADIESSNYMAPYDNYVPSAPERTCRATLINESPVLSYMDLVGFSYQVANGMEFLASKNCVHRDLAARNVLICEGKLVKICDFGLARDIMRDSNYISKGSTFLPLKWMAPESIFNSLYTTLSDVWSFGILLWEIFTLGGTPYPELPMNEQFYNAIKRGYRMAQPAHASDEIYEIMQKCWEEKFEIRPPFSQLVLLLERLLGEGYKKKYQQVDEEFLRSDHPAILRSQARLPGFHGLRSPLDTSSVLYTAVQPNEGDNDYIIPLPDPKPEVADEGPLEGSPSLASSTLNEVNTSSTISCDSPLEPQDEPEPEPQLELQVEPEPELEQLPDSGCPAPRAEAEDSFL
T1 sequence (P35968 with tags, fused parts or gaps DEL940-989/E990V limits assumed): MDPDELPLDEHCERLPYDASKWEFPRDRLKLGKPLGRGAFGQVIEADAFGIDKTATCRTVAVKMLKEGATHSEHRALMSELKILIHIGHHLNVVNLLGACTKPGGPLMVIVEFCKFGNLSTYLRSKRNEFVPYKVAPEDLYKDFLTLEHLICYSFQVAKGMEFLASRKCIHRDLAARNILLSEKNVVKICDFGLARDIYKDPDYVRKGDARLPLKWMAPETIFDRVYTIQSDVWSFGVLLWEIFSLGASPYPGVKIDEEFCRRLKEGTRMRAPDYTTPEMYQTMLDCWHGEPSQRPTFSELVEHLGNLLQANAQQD

| SMILES | Ki [1] [nM] | inhibition at 0.05 µM [1] [%] | IC50 [3] | IC50 [2] [nM] |
| --- | --- | --- | --- | --- |
| CO[C@H]1CCN(C(=O)c2cc3nccc(Oc4ccc5c(c4)cc(C)n5C(=O)NCC#CC4CC4)c3s2)C1 [Example 4i, 5-[2-(3S-Methoxy-pyrrolidine-1-carbonyl)-thieno[3,2-b]pyridin-7-yloxy]-2-methyl-indole-1-carboxylic acid (3-cyclopropyl-prop-2-ynyl)-amide] | 1.56 | 97 | 5.5 nM | 0.569 |
| CNC(=O)n1c(C)cc2cc(Nc3ccnc4cc(C(=O)N5CC[C@H](OC)C5)sc34)ccc21 [Example 1g, 5-[2-(3S-Methoxy-pyrrolidine-1-carbonyl)-thieno[3,2-b]pyridin-7-ylamino]-2-methyl-indole-1-carboxylic acid methylamide] |  |  | 95 nM and 152 nM | 1 |
| C#CCNC(=O)n1c(C)cc2cc(Nc3ccnc4cc(C(=O)N5CC[C@H](O)C5)sc34)ccc21 [Example 1j, 5-[2-(3S-Hydroxy-pyrrolidine-1-carbonyl)-thieno[3,2-b]pyridin-7-ylamino]-2-methyl-indole-1-carboxylic acid prop-2-ynylamide] | 0.72 | 96 |  | 0.149 |
| C#CCNC(=O)n1c(C)cc2c(F)c(Oc3ccnc4cc(C(=O)N5CC[C@@H](OC)C5)sc34)ccc21 [Example 5o, 4-Fluoro-5-[2-((R)-3-methoxy-pyrrolidine-1-carbonyl)-thieno[3,2-b]pyridin-7-yloxy]-2-methyl-indole-1-carboxylic acid prop-2-ynylamide] | 0.09 | 99 | 3.65 nM |  |
| Cc1cc2cc(Nc3ccnc4cc(C(=O)N5C[C@H](O)C[C@H]5C(C)(C)O)sc34)ccc2n1C(=O)NC1CC1 [Example 3e] | 2.1 | 87 |  | 4.9 |
| CNC(=O)n1c(C)cc2c(F)c(Oc3ccnc4cc(C(=O)N5CC[C@H](O)C5)sc34)ccc21 [Example 5i, 4-Fluoro-5-[2-(3S-hydroxy-pyrrolidine-1-carbonyl)-thieno[3,2-b]pyridin-7-yloxy]-2-methyl-indole-1-carboxylic acid methylamide] | 0.525 | 97 |  | 0.11 |
| CNC(=O)n1c(C)cc2cc(Nc3cccc4cc(C(=O)N5C[C@H](O)C[C@H]5CO)sc34)ccc21 [Example 3i, 5-[2-((2S,4R)-4-Hydroxy-2-hydroxymethyl-pyrrolidine-1-carbonyl)-benzo[b]thiophen-7-ylamino]-2-methyl-indole-1-carboxylic acid methylamide] | 4.17 | 74 |  | 5.5 |
| CNC(=O)n1c(C)cc2cc(Oc3ccnc4cc(-c5nc(CO)cs5)sc34)ccc21 [Example 3m] | 0.2 | 83 | 2.48 nM |  |
| C#CCNC(=O)n1c(C)cc2cc(Nc3ccnc4cc(C(=O)N5CC[C@H](OC)C5)sc34)ccc21 [Example 1h, 5-[2-(3S-Methoxy-pyrrolidine-1-carbonyl)-thieno[3,2-b]pyridin-7-ylamino]-2-methyl-indole-1-carboxylic acid prop-2-ynylamide] | 1.23 | 94 | 57.7 nM |  |

Continued, in another order:

| Ki [1] [nM] | inhibition at 0.05 µM [1] [%] | IC50 [3] | SMILES | IC50 [2] [nM] |
| --- | --- | --- | --- | --- |
| 0.406 | 95 | > 1000 nM | CNC(=O)n1c(C)cc2cc(Nc3ccnc4cc(C(=O)N5CC(F)[C@H](O)C5)sc34)ccc21 (stereo partly drawn) [Example 7b, 5-[(2-{[(4R)-3-Fluoro-4-hydroxypyrrolidin-1-yl]carbonyl}thieno[3,2-b]pyridin-7-yl)amino]-N,2-dimethyl-1H-indole-1-carboxamide] |  |
| 0.428 | 98 | 28.6 nM | C#CCNC(=O)n1c(C)c(Cl)c2c(F)c(Oc3ccnc4cc(C(=O)N5CC[C@H](OC)C5)sc34)ccc21 [Example 6a, 3-Chloro-4-fluoro-5-[2-(3S-methoxy-pyrrolidine-1-carbonyl)-thieno[3,2-b]pyridin-7-yloxy]-2-methyl-indole-1-carboxylic acid prop-2-ynylamide] | 0.427 |
| 0.004 | 99 | 4.5 nM | CNC(=O)n1c(C)cc2cc(Oc3ccnc4cc(C(=O)N5CCC5)sc34)ccc21 [Example 8m, 5-[2-(Azetidine-1-carbonyl)-thieno[3,2-b]pyridin-7-yloxy]-2-methyl-indole-1-carboxylic acid methylamide] | 0.084 |
| 0.667 | 84 | 13 nM | CO[C@H]1CCN(C(=O)c2cc3nccc(Oc4ccc5c(c4)cc(C)n5C(=O)NCC#N)c3s2)C1 [Example 9f, 5-[2-(3S-Methoxy-pyrrolidine-1-carbonyl)-thieno[3,2-b]pyridin-7-yloxy]-2-methyl-indole-1-carboxylic acid cyanomethyl-amide] | 0.68 |
| 141 | 5 | > 1000 nM | CNC(=O)n1c(C)cc2cc(Nc3ncnc4sc(C(=O)N5CCC[C@H]5COC)cc34)ccc21 [Example 12b, 5-[6-(2-Methoxymethyl-pyrrolidine-1-carbonyl)-thieno[2,3-b]pyrimidin-4-ylamino]-2-methyl-indole-1-carboxylic acid methylamide] |  |
| 4.55 | 68 | > 1000 nM | CNC(=O)c1c(C)n(C(=O)NC)c2ccc(Oc3ccnc4cc(C(=O)N5CC[C@@H](N(C)C)C5)sc34)cc12 [Example 8a, 5-[(2-{[(3R)-3-(Dimethylamino)pyrrolidin-1-yl]carbonyl}thieno[3,2-b]pyridin-7-yl)oxy]-N,N′,2-trimethyl-1H-indole-1,3-dicarboxamide] |  |

From patent publication US6833456B2, “Indolyl-urea derivatives of thienopyridines useful as antiangiogenic agents, and methods for their use” (Agouron Pharmaceuticals, Inc., priority 2002, dated 2004)
